Laboratory results: patent publication US20250367226A1, “ANTI-MALASSEZIA AGENT” (N.T.H Co., Ltd., priority 2024, published 2025)
Structures can show the parent of a compound that is named as a salt.

System: Malassezia globosa
Test: Anti-Malassezia test (viability of Malassezia, WST microbial viability assay)
Details: for viability at 1 µM / viability at 10 µM / viability at 100 µM: Malassezia globosa, 22 h, read-out: viability (%) of Malassezia, relative to negative control taken as 100; for anti-Malassezia effect compared with the positive control drugs: versus streptomycin sulfate, amorolfine hydrochloride, itraconazole; for concentration required to inhibit the viability of Malassezia by 20%: 20% inhibition of viability
Procedure: The Malassezia strain was cultured in CHROMagar Malassezia/Candida prepared medium (Kanto Chemical Co., Ltd.).
In 1 L of distilled water were dissolved 10 g of D-glucose, 5 g of peptone, 3 g of yeast extract, 3 g of malt extract and 0.1 g of penicillin. The resulting solution was filtered and used for the experiments.
A suspension of Malassezia was prepared to an optical density equivalent to McFarland's Standard No. 3 and 0.5 mL of the suspension was added to tubes. Each of the prepared samples, oleic acid and the YM medium were mixed into the tubes, and Malassezia was cultured at 37° C. for 22 hours. The fungi were stained using Microbial viability assay kit-WST (Dojindo Laboratories) and cultured at 37° C. for 2 hours. The absorbance was measured to calculate the viability of Malassezia. The results are expressed as a percentage (%) relative to a negative control (“control”: with no addition of test substances) taken as 100. A lower percentage indicates a stronger anti-Malassezia effect. The values obtained in the experiments were expressed as the mean±S.E. The significance of the difference in the means between the test substance administration groups and the negative control group was tested by the Dunnett's test. The significance level was set at 5% or 1%.

| Compound | viability at 1 µM [%] | viability at 10 µM [%] | viability at 100 µM [%] | anti-Malassezia effect compared with the positive control drugs | concentration required to inhibit the viability of Malassezia by 20% |
| --- | --- | --- | --- | --- | --- |
| CC(=O)c1c(O)cc(O[C@@H]2OC(CO)[C@@H](O)C(O)C2O)c(O[C@@H]2OC(CO)[C@@H](O)C(O)C2O)c1O (some centres unmarked) [Compound 1, inermioside A] | 93.6 | 81.3 | 76.3 | comparable to or higher than that of the positive control drugs |  |
| [H]/N=C(/N)N[C@H]1[C@H](O)[C@@H](O)[C@H](O[C@@H]2O[C@@H](C)[C@](O)(C=O)[C@H]2O[C@@H]2O[C@@H](CO)[C@H](O)[C@@H](O)[C@@H]2NC)[C@@H](N/C(N)=N\[H])[C@@H]1O [streptomycin sulfate, reference compound] |  | 106 |  |  | ≥ 137 µM |
| C[C@@H]1O[C@@H](OC[C@H]2O[C@@H](Oc3cc(O)c4c(=O)cc(-c5ccc(O)cc5)oc4c3)[C@H](O)[C@@H](O)[C@@H]2O)[C@H](O)[C@H](O)[C@H]1O [Compound 2, apigenin 7-O-α-L-rhamnopyranosyl-(1→6)-β-D-glucopyranoside] | 83.6 | 81.4 | 61.5 | comparable to or higher than that of the positive control drugs |  |
| CCC(C)n1ncn(-c2ccc(N3CCN(c4ccc(OCC5COC(Cn6cncn6)(c6ccc(Cl)cc6Cl)O5)cc4)CC3)cc2)c1=O (centres unmarked) [Itraconazole, itraconazole, reference compound] |  |  |  |  | about 10 μM |
